The text below walks through data of EP1151753B1, “PREVENTIVE AND THERAPEUTIC AGENTS FOR ARTERIOSCLEROSIS” (CCI CORPORATION, priority 1999, dated 2000).

Data set [1] in a line: Lipoprotein analysis, WHHL rabbit model. It is filed as in vivo, WHHL type rabbits. Conditions: WHHL rabbits. The text has this: 1. Animal used and feeding conditions In the test, female and male WHHL type rabbits (SPF: Kitayama Labels K.K.) which were eight weeks old at the time of arrival at the laboratory were subjected to quarantine and domestication and visually inspected as to the general condition and, after the absence of abnormality was confirmed, put to use. The body weights at the time of starting administration (at the age of nine weeks) were in the range of 1.5 - 1.9 kg in the case of male rabbits and in the range of 1.4 - 1.8 kg in the case of female rabbits. Throughout the entire duration of the test, the animals were raised as accommodated one each in hanger cages of aluminum installed on a stainless steel rack inside a clean feeding chamber set at a temperature in the range of 20 - 26°, a relative humidity in the range of 40 - 70%, a number of ventilations in the range of 10 - 20 turns/hour, and an illumination time within the range of 12 hours (7.00 - 19:00). They were fed on a commercially available radioactively sterilized solid feed (made by Oriental Kobo K.K. and sold under the product code of "RC4") and they were left freely drinking the tap water delivered by an automatic water supplying device. 2. Setting dosage and method of administration The dosage of TMG was set at 800 mg/head/day. The TMG was solved in reagent grade ethanol. The produced solution was sprayed on the feed and the wet feed was left drying in the air. A mixed feed was prepared so as to contain 800 mg of TMG per 100 g of the feed. The mixed feed was given to the rabbits every morning at a rate of 100 g/day per head for 27 weeks for the sake of attaining oral consumption of the TMG. The feed for the control group was obtained by spraying ethanol alone on a feed and air-drying the wet feed. It was given to the rabbits of the control group at a rate of 100 g/day per head for 27 weeks. 3. […] The blood was centrifuged to separate blood serum and the blood serum was analyzed for the items shown in Table 5 by the use of an automatic analyzer (made by Hitachi. Ltd. and sold under the product code of "736-20"). The body weight of each rabbit was measured at the rate of once a week throughout the entire duration of the administration.
5. […] The blood serum was ultracentrifuged by Hatch and Lees method (Hatch, F. T., and Lees, R. S. (1968) Advan, Lipid Res. 6, 1-68) using a centrifuge (the rotor; Beckman 70.1 Ti) made by Beckman and sold under the product code of "L-70") to separate low specific gravity lipoprotein (1.006 < d < 1.063), with the cholesterol amount of the LDL fraction determined by the cholesterol oxidase DASO method and the amount of HDL-cholesterol determined by subjecting the blood serum to the phospho-tungstic acid magnesium salt precipitation method. […]

Data set [2] in a line: Lipoprotein analysis, cholesterol-loaded rabbit model. The data set is classed as in vivo, New Zealand White (NZW) type rabbits. The note with it: cholesterol-loaded NZW rabbits. From the text:
In the test, female and male New Zealand White (NZW) type rabbits (SPF: Kitayama Labels K.K.) which were seven weeks old at the time of arrival at the laboratory were subjected to quarantine and two weeks' domestication and visually inspected as to the general condition and, after the absence of abnormality was confirmed, put to use. The body weights at the time of starting administration (at the age of nine weeks) were in the range of 1.8 - 2.2 kg in the case of male rabbits and in the range of 1.6 - 2.0 kg in the case of female rabbits. Throughout the entire duration of the test, the animals were raised as accommodated one each in hanger cages of aluminum installed on a stainless steel rack inside a clean feeding chamber set at a temperature in the range of 20 - 26°, a relative humidity in the range of 40 - 70%, a number of ventilations in the range of 10 - 20 turns/hour, and an illumination time within the range of 12 hours (7.00 - 19:00). They were fed on a commercially available radioactively sterilized solid feed (a product containing 1% of cholesterol, made by Oriental Kobo K.K. and sold under the product code of "RC4") and they were left freely drinking the tap water delivered by an automatic water supplying device.
The dosage of TMG was set at 800 mg/head/day. The TMG was solved in reagent grade ethanol. The produced solution was sprayed on the 1% cholesterol-containing feed and the wet feed was left drying in the air. A mixed feed was prepared so as to contain 800 mg of TMG per 100 g of the feed. The mixed feed was given to the rabbits every morning at a rate of 100 g/day per head for 12 weeks for the sake of attaining oral consumption of the TMG. The feed for the control group was obtained by spraying ethanol alone on a feed containing 1% cholesterol and air-drying the wet feed. It was given to the rabbits of the control group at a rate of 100 g/day per heat for 12 weeks. […]
About 10 ml of blood was taken from the heart or the auricular artery of a rabbit experiencing 12 hours' fast prior to the start of the administration and on the 6th and 12th weeks of administration. […] The blood serum was ultracentrifuged by Hatch and Lees method (Hatch, F. T., and Lees, R. S. (1968) Advan, Lipid Res. 6, 1-68) using a centrifuge (the rotor; Beckman 70.1 Ti) made by Beckman and sold under the product code of "L-70") to separate low specific gravity lipoprotein (1.006 < d < 1.063), with the cholesterol amount of the LDL fraction determined by the cholesterol oxidase DASO method and the amount of HDL-cholesterol determined by subjecting the blood serum to the phospho-tungstic acid magnesium salt precipitation method. The amount of TMG was determined by the HPLC method.

Where [3] appears, read: TMG 800 mg/head/day in feed, 26th week of administration, average ± SE.
The mark [4] stands for this setting: TMG 800 mg/head/day in feed, 12th week of administration, average ± SE.

Consider `Cc1c(C)c2c(c(C)c1O)CCC(C)(C[C@H]1O[C@H](CO)[C@@H](O)[C@H](O)[C@H]1O)O2` (stereo partly drawn) [TMG, 2-(α-D-glucopyranosyl)methyl-2,5,7,8-tetramethyl chroman-6-ol], for which the “activity of lowering the HDL-cholesterol” value in data set [1] (TMG 800 mg/head/day for 27 weeks) and in data set [2] (TMG 800 mg/head/day for 12 weeks) was “no activity” throughout. The HDL-CHO turned out to be 5 ± 1 mg/dL in data set [1] (setting [3]) and 33 ± 5 mg/dL in data set [2] (setting [4]). The LDL-CHO amounted to 746 ± 29 mg/dL in data set [1] (setting [3]) and 620 ± 34 mg/dL in data set [2] (setting [4]). For the same compound, the LDL-TMG entry in data set [1] (amount of TMG in LDL fraction by HPLC, TMG 800 mg/head/day in feed, 26th week of administration) is reported as “not detected”; in data set [2] (amount of TMG in LDL fraction by HPLC, TMG 800 mg/head/day in feed, 12th week of administration), “not detected”.
